PubChem BioAssay (NCI)
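Grown in 96-well plates, cells were treated for 48 hours with each compound at five concentrations. Insufficient inhibition: endpoint recorded as highest concentration tested. TGI: concentration producing complete growth inhibition.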

What was measured:
Assay in all cases: NCI-60 cell line screen, 48 h
SNB-19 CNS = tested on: SNB-19 CNS
UO-31 renal = tested on: UO-31 renal
IGROV1 ovarian = tested on: IGROV1 ovarian
OVCAR-5 ovarian = tested on: OVCAR-5 ovarian
ACHN renal = tested on: ACHN renal
SK-MEL-28 melanoma = tested on: SK-MEL-28 melanoma
HCT-15 colon = tested on: HCT-15 colon
OVCAR-3 ovarian = tested on: OVCAR-3 ovarian
PC-3 prostate = tested on: PC-3 prostate
NCI-H23 lung = tested on: NCI-H23 lung
DU-145 prostate = tested on: DU-145 prostate
RPMI-8226 leukemia = tested on: RPMI-8226 leukemia
OVCAR-4 ovarian = tested on: OVCAR-4 ovarian
SF-295 CNS = tested on: SF-295 CNS
HCC-2998 colon = tested on: HCC-2998 colon
OVCAR-8 ovarian = tested on: OVCAR-8 ovarian
UACC-257 melanoma = tested on: UACC-257 melanoma
K-562 leukemia = tested on: K-562 leukemia
A498 renal = tested on: A498 renal
MALME-3M melanoma = tested on: MALME-3M melanoma
HL-60(TB) leukemia = tested on: HL-60(TB) leukemia
MCF7 breast = tested on: MCF7 breast
U251 CNS = tested on: U251 CNS
SW-620 colon = tested on: SW-620 colon
MOLT-4 leukemia = tested on: MOLT-4 leukemia
SK-MEL-2 melanoma = tested on: SK-MEL-2 melanoma
CAKI-1 renal = tested on: CAKI-1 renal
SF-539 CNS = tested on: SF-539 CNS
TK-10 renal = tested on: TK-10 renal
A549 NSCLC = tested on: A549 NSCLC
T-47D breast = tested on: T-47D breast
BT-549 breast = tested on: BT-549 breast
SK-MEL-5 melanoma = tested on: SK-MEL-5 melanoma
HOP-92 NSCLC = tested on: HOP-92 NSCLC
HCT-116 colon = tested on: HCT-116 colon
NCI/ADR-RES ovarian = tested on: NCI/ADR-RES ovarian
SN12C renal = tested on: SN12C renal
NCI-H460 lung = tested on: NCI-H460 lung
RXF 393 renal = tested on: RXF 393 renal
HT29 colon = tested on: HT29 colon
MDA-MB-231 breast = tested on: MDA-MB-231 breast
MDA-MB-435 = tested on: MDA-MB-435
KM12 colon = tested on: KM12 colon
MDA-N = tested on: MDA-N
786-0 renal = tested on: 786-0 renal
SR leukemia = tested on: SR leukemia
UACC-62 melanoma = tested on: UACC-62 melanoma
COLO 205 colon = tested on: COLO 205 colon
SNB-75 CNS = tested on: SNB-75 CNS
SF-268 CNS = tested on: SF-268 CNS
NCI-H522 lung = tested on: NCI-H522 lung
M14 melanoma = tested on: M14 melanoma
NCI-H226 lung = tested on: NCI-H226 lung
CCRF-CEM leukemia = tested on: CCRF-CEM leukemia
LOX IMVI melanoma = tested on: LOX IMVI melanoma
HS 578T breast = tested on: HS 578T breast
EKVX NSCLC = tested on: EKVX NSCLC
SK-OV-3 ovarian = tested on: SK-OV-3 ovarian

Q: How did the TGI (SNB-19 CNS) turn out when OC[C@H]1CCCC1O (stereo partly specified) was run?
A: The TGI was greater than 100 µM.

Q: And the TGI (UO-31 renal)?
A: Its TGI is greater than 100 µM.

Q: What about the TGI (IGROV1 ovarian) of the same compound?
A: Its TGI is greater than 100 µM.

Q: And the TGI (OVCAR-5 ovarian)?
A: Its TGI is greater than 100 µM.

Q: And the TGI (ACHN renal)?
A: The TGI was greater than 100 µM.

Q: And the TGI (SK-MEL-28 melanoma)?
A: The TGI was greater than 100 µM.

Q: What about the TGI (HCT-15 colon) of the same compound?
A: Its TGI is greater than 100 µM.

Q: What about the TGI (OVCAR-3 ovarian) of the same compound?
A: Its TGI is greater than 100 µM.

Q: And the TGI (PC-3 prostate)?
A: The TGI was greater than 100 µM.

Q: And the TGI (NCI-H23 lung)?
A: The TGI was greater than 100 µM.

Q: What about the TGI (DU-145 prostate) of the same compound?
A: The TGI was greater than 100 µM.

Q: And the TGI (RPMI-8226 leukemia)?
A: The TGI was greater than 100 µM.

Q: What about the TGI (OVCAR-4 ovarian) of the same compound?
A: Its TGI is greater than 100 µM.

Q: What about the TGI (SF-295 CNS) of the same compound?
A: The TGI was greater than 100 µM.

Q: And the TGI (HCC-2998 colon)?
A: Its TGI is greater than 100 µM.

Q: What about the TGI (OVCAR-8 ovarian) of the same compound?
A: The TGI was greater than 100 µM.

Q: What about the TGI (UACC-257 melanoma) of the same compound?
A: The TGI was greater than 100 µM.

Q: What about the TGI (K-562 leukemia) of the same compound?
A: Its TGI is greater than 100 µM.

Q: What about the TGI (A498 renal) of the same compound?
A: Its TGI is greater than 100 µM.

Q: And the TGI (MALME-3M melanoma)?
A: The TGI was greater than 100 µM.

Q: What about the TGI (HL-60(TB) leukemia) of the same compound?
A: Its TGI is greater than 100 µM.

Q: What about the TGI (MCF7 breast) of the same compound?
A: The TGI was greater than 100 µM.

Q: And the TGI (U251 CNS)?
A: Its TGI is greater than 100 µM.

Q: What about the TGI (SW-620 colon) of the same compound?
A: The TGI was greater than 100 µM.

Q: What about the TGI (MOLT-4 leukemia) of the same compound?
A: Its TGI is greater than 100 µM.

Q: What about the TGI (SK-MEL-2 melanoma) of the same compound?
A: The TGI was greater than 100 µM.

Q: What about the TGI (CAKI-1 renal) of the same compound?
A: The TGI was greater than 100 µM.

Q: And the TGI (SF-539 CNS)?
A: Its TGI is greater than 100 µM.

Q: And the TGI (TK-10 renal)?
A: The TGI was greater than 100 µM.

Q: And the TGI (A549 NSCLC)?
A: Its TGI is greater than 100 µM.

Q: And the TGI (T-47D breast)?
A: The TGI was greater than 100 µM.

Q: What about the TGI (BT-549 breast) of the same compound?
A: The TGI was greater than 100 µM.

Q: What about the TGI (SK-MEL-5 melanoma) of the same compound?
A: Its TGI is greater than 100 µM.

Q: And the TGI (HOP-92 NSCLC)?
A: Its TGI is greater than 100 µM.

Q: What about the TGI (HCT-116 colon) of the same compound?
A: The TGI was greater than 100 µM.

Q: And the TGI (NCI/ADR-RES ovarian)?
A: The TGI was greater than 100 µM.

Q: And the TGI (SN12C renal)?
A: Its TGI is greater than 100 µM.

Q: And the TGI (NCI-H460 lung)?
A: The TGI was greater than 100 µM.

Q: And the TGI (RXF 393 renal)?
A: The TGI was greater than 100 µM.

Q: And the TGI (HT29 colon)?
A: The TGI was greater than 100 µM.

Q: What about the TGI (MDA-MB-231 breast) of the same compound?
A: Its TGI is greater than 100 µM.

Q: And the TGI (MDA-MB-435)?
A: The TGI was greater than 100 µM.

Q: What about the TGI (KM12 colon) of the same compound?
A: The TGI was greater than 100 µM.

Q: What about the TGI (MDA-N) of the same compound?
A: Its TGI is greater than 100 µM.

Q: And the TGI (786-0 renal)?
A: Its TGI is greater than 100 µM.

Q: And the TGI (SR leukemia)?
A: The TGI was greater than 100 µM.

Q: What about the TGI (UACC-62 melanoma) of the same compound?
A: Its TGI is greater than 100 µM.

Q: And the TGI (COLO 205 colon)?
A: Its TGI is greater than 100 µM.

Q: And the TGI (SNB-75 CNS)?
A: The TGI was greater than 100 µM.

Q: What about the TGI (SF-268 CNS) of the same compound?
A: The TGI was greater than 100 µM.

Q: And the TGI (NCI-H522 lung)?
A: The TGI was greater than 100 µM.

Q: What about the TGI (M14 melanoma) of the same compound?
A: The TGI was greater than 100 µM.

Q: What about the TGI (NCI-H226 lung) of the same compound?
A: The TGI was greater than 100 µM.

Q: And the TGI (CCRF-CEM leukemia)?
A: Its TGI is greater than 100 µM.

Q: COc1ccccc1/C=C1\SC(=S)N(/C=C2\C(=O)Oc3ccccc3C2=O)C1=O was tested. Which TGI (SNB-19 CNS) did it give?
A: The TGI was greater than 100 µM.

Q: What about the TGI (UO-31 renal) of the same compound?
A: Its TGI is 83.2 µM.

Q: What about the TGI (IGROV1 ovarian) of the same compound?
A: The TGI was greater than 100 µM.

Q: And the TGI (LOX IMVI melanoma)?
A: Its TGI is greater than 100 µM.

Q: And the TGI (OVCAR-5 ovarian)?
A: The TGI was greater than 100 µM.

Q: And the TGI (ACHN renal)?
A: Its TGI is greater than 100 µM.

Q: And the TGI (HCT-15 colon)?
A: Its TGI is greater than 100 µM.

Q: What about the TGI (OVCAR-3 ovarian) of the same compound?
A: The TGI was 44.6 µM.

Q: And the TGI (PC-3 prostate)?
A: The TGI was greater than 100 µM.

Q: And the TGI (NCI-H23 lung)?
A: Its TGI is 10.1 µM.

Q: And the TGI (DU-145 prostate)?
A: Its TGI is greater than 100 µM.

Q: What about the TGI (OVCAR-4 ovarian) of the same compound?
A: Its TGI is greater than 100 µM.

Q: What about the TGI (OVCAR-8 ovarian) of the same compound?
A: Its TGI is greater than 100 µM.

Q: And the TGI (UACC-257 melanoma)?
A: Its TGI is 62.2 µM.

Q: And the TGI (K-562 leukemia)?
A: Its TGI is greater than 100 µM.

Q: What about the TGI (MALME-3M melanoma) of the same compound?
A: The TGI was 64 µM.

Q: What about the TGI (MCF7 breast) of the same compound?
A: Its TGI is greater than 100 µM.

Q: What about the TGI (U251 CNS) of the same compound?
A: The TGI was greater than 100 µM.

Q: What about the TGI (HS 578T breast) of the same compound?
A: Its TGI is greater than 100 µM.

Q: What about the TGI (SW-620 colon) of the same compound?
A: The TGI was greater than 100 µM.

Q: What about the TGI (MOLT-4 leukemia) of the same compound?
A: Its TGI is greater than 100 µM.

Q: What about the TGI (SK-MEL-2 melanoma) of the same compound?
A: The TGI was 59.4 µM.

Q: What about the TGI (CAKI-1 renal) of the same compound?
A: The TGI was 3.23 µM.

Q: And the TGI (EKVX NSCLC)?
A: The TGI was 60.2 µM.

Q: And the TGI (SF-539 CNS)?
A: Its TGI is 85.3 µM.

Q: What about the TGI (TK-10 renal) of the same compound?
A: The TGI was 95.9 µM.

Q: What about the TGI (A549 NSCLC) of the same compound?
A: The TGI was greater than 100 µM.

Q: And the TGI (BT-549 breast)?
A: Its TGI is 80.9 µM.

Q: And the TGI (SK-MEL-5 melanoma)?
A: Its TGI is 51.4 µM.

Q: What about the TGI (HOP-92 NSCLC) of the same compound?
A: Its TGI is 64.8 µM.

Q: What about the TGI (HCT-116 colon) of the same compound?
A: The TGI was greater than 100 µM.

Q: What about the TGI (NCI/ADR-RES ovarian) of the same compound?
A: The TGI was greater than 100 µM.

Q: And the TGI (HT29 colon)?
A: Its TGI is greater than 100 µM.

Q: What about the TGI (MDA-MB-231 breast) of the same compound?
A: Its TGI is 47.7 µM.

Q: And the TGI (MDA-MB-435)?
A: Its TGI is 86.5 µM.

Q: And the TGI (KM12 colon)?
A: Its TGI is greater than 100 µM.

Q: And the TGI (MDA-N)?
A: Its TGI is greater than 100 µM.

Q: And the TGI (786-0 renal)?
A: Its TGI is greater than 100 µM.

Q: What about the TGI (SK-OV-3 ovarian) of the same compound?
A: Its TGI is 76 µM.

Q: And the TGI (UACC-62 melanoma)?
A: Its TGI is 64 µM.

Q: And the TGI (COLO 205 colon)?
A: Its TGI is 50.4 µM.

Q: What about the TGI (SNB-75 CNS) of the same compound?
A: The TGI was 55.6 µM.

Q: And the TGI (SF-268 CNS)?
A: Its TGI is greater than 100 µM.

Q: What about the TGI (NCI-H522 lung) of the same compound?
A: Its TGI is 95.7 µM.

Q: What about the TGI (M14 melanoma) of the same compound?
A: Its TGI is greater than 100 µM.

Q: What about the TGI (NCI-H226 lung) of the same compound?
A: The TGI was greater than 100 µM.

Q: What about the TGI (CCRF-CEM leukemia) of the same compound?
A: Its TGI is greater than 100 µM.
